Values of other authors, collected in patent US5028692A, “Gastrin releasing peptide antagonist” (Merck & Co., Inc., priority 1989, dated 1991).
Peptide text beside a SMILES is read from it.

How the values were obtained:
[1] = test system: SCLC cell lines
[2] = test system: bombesin-stimulated growth

Molecule | inhibition of clonal and mass culture growth [1] | inhibition of bombesin-stimulated growth [2]
CSCC[C@H](NC(=O)[C@H](CC(C)C)NC(=O)CNC(=O)[C@H](Cc1ccc(O)cc1)NC(=O)[C@H](Cc1ccccc1)NC(=O)[C@H](CCCCN)NC(=O)[C@H](CC(N)=O)NC(=O)[C@@H]1CCCN1C(=O)[C@H](CC(=O)O)NC(=O)[C@H](C)NC(=O)[C@@H]1CCC(=O)N1)C(N)=O [physalaemin] (HELM PEPTIDE1{[Glp].A.D.P.N.K.F.Y.G.L.M.[am]}$$$$V2.0) | inhibits the clonal and mass culture growth of SCLC cell lines at picomolar concentrations | –
[Leu^14 -.PSI.-CH2 NH-Leu^13 ] bombesin | – | potent inhibitor
